The record followed here is patent publication US20120220567A1, “BENZO-FUSED OXAZEPINE COMPOUNDS AS STEAROYL-COENZYME A DELTA-9 DESATURASE INHIBITORS” (priority 2009, published 2012).

Structures are written as SMILES. pIC50: −log10 of the molar value. Where only a bound is given, the exact number is not on record here.

One experiment has as its target T1, SCD-1 (Homo sapiens, UniProt O00767).
T1 construct: 50 μg of protein from a HepG2 cell P2 pellet; endogenous in cells; host or cells: HepG2 cells (P2 pellet)
T1 sequence (O00767 1-359): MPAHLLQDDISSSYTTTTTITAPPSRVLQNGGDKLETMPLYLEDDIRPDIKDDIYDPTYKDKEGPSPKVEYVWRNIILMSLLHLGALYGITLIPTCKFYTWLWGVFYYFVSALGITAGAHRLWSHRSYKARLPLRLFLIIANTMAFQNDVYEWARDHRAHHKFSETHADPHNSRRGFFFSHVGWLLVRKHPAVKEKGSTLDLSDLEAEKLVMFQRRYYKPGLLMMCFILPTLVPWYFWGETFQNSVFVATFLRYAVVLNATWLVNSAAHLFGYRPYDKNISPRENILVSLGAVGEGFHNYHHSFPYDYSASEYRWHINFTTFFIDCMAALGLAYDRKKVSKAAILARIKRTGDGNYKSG
As to the kind of experiment: Stearoyl-CoA desaturase assay (HepG2 cell P2 pellet). The experiment is classed as biochemical. The following applies: Table 1, compounds of formula (Ia); protein from HepG2 cell P2 pellet, 20 μM stearoyl-CoA, 15 min at 25° C.; read-out: Ave IC50. The protocol: Stearoyl-CoA desaturase assays were performed in according to Talamo and Bloch. […] Assays were run in triplicate in 100-μl volumes of 100 mM TrisHCl, pH 7.3, containing 20 μM stearoyl-CoA, 2 mM β-NADH, and 50 μg of protein from a HepG2 cell P2 pellet. Since SCD-1 is the only isoform of SCD expressed in these cells, the assay is specific for SCD-1 with these cells as the source of enzyme. Reaction mixtures were incubated fifteen minutes at 25° C. and reactions were then stopped with a volume of trichloroacetic acid giving a final concentration of 0.2%. After five minutes, a 90-μl volume was transferred to a Millipore Multiscreen HTS 96-well filtration plate (MSHVN4B50) containing 125 μl of 10% charcoal in each well, to which vacuum had been previously applied. Plates were shaken fifteen minutes and then filtered into a collection plate. Fifty-μI volumes of filtrate were transferred to another plate containing 150 μl of MicroScint 40 for counting on a TopCount scintillation counter.
For the compound `CC(=O)NCC(=O)N1CCC2(CC1)CCN(Cc1ccc(C(C)(C)C)cc1)c1cccc(Cl)c1O2` [Compound 15], the pIC50 was 5.00 to 6.30.

With `CC(=O)NCC(=O)N1CCC2(CC1)CCN(Cc1ccccc1Br)c1ccccc1O2` [Compound 37], the negative-log IC50 (pIC50) was 5.00 to 6.30.

For the compound `CCc1ccc(CN2CCC3(CCN(C(=O)[C@H](C)NC(C)=O)CC3)Oc3ccccc32)cc1` [Compound 3], the negative logarithm of the IC50 (pIC50) is < 5.00.

Turning to `CCc1ccc(CN2CCC3(CCN(C(=O)CNC(=O)Cc4cn(C)cn4)CC3)Oc3ccccc32)cc1` [Compound 11], the pIC50 was 5.00 to 6.30.

As to `CC(C)(C)c1ccc(CN2CCC3(CCN(C(=O)CNC(=O)c4cccs4)CC3)Oc3ccccc32)cc1` [Compound 44], the pIC50 was 6.30 to 7.30.

For `CC(=O)NCC(=O)N1CCC2(CC1)CCN(Cc1ccc(Cl)cc1)c1ccccc1O2` [Compound 17], the pIC50 is < 5.00.

`CC(=O)NCC(=O)N1CCC2(CC1)CCN(Cc1cccc(O)c1)c1ccccc1O2` [Compound 32]: the negative-log IC50 (pIC50) was 5.00 to 6.30.

In the case of `CC(=O)NCC(=O)N1CCC2(CC1)CCN(Cc1cccc(Cl)c1)c1ccccc1O2` [Compound 26], the pIC50 is 5.00 to 6.30.

Take `COc1ccc(CN2CCC3(CCN(C(=O)CNC(C)=O)CC3)Oc3ccccc32)cc1` [Compound 16]: the pIC50 is 5.00 to 6.30.

As for `CC(=O)NCC(=O)N1CCC2(CC1)CCN(Cc1ccc(Cl)s1)c1ccccc1O2` [Compound 33], the pIC50 was 5.00 to 6.30.

As for `CCc1ccc(CN2CCC3(CCN(C(=O)C(CO)NC(C)=O)CC3)Oc3ccccc32)cc1` (centres unmarked) [Compound 2], the pIC50 is < 5.00.

As for `CC(=O)NCC(=O)N1CCC2(CC1)CCN(Cc1ccc(C(C)(C)C)cc1)c1cccc(F)c1O2` [Compound 46], the negative logarithm of the IC50 (pIC50) is 5.00 to 6.30.

The experiment is the same for the next values; noted with them: Table 2, compounds of formula (Ib); protein from HepG2 cell P2 pellet, 20 μM stearoyl-CoA, 15 min at 25° C.; read-out: Ave IC50.
As to `CNC(=O)c1cnc(N2CCC3(CC2)CCN(Cc2ccc(C(C)(C)C)cc2)c2ccccc2O3)s1` [Compound 70], the pIC50 is 7.31 to 9.30.

As to `FC(F)(F)c1cccc(CN2CCC3(CCN(c4ncc(Br)s4)CC3)Oc3ccccc32)c1` [Compound 53], the pIC50 is 5.00 to 6.30.

Turning to `CC(C)(C)c1ccc(CN2CCC3(CCN(c4ncc(C(=O)NCCC(=O)O)s4)CC3)Oc3ccccc32)cc1` [Compound 130], the negative-log IC50 (pIC50) was 7.31 to 9.30.

Take `CC(C)(C)c1ccc(CN2CCC3(CCN(c4ncc(C(=O)NCCC(N)=O)s4)CC3)Oc3c(F)cccc32)cc1` [Compound 91]: the pIC50 was 6.30 to 7.30.

Regarding `CC(C)CCNC(=O)c1cnc(N2CCC3(CC2)CCN(Cc2ccc(C(C)(C)C)cc2)c2cccc(F)c2O3)s1` [Compound 109], the pIC50 was 5.00 to 6.30.

With `Cc1ccc(CCNC(=O)c2cnc(N3CCC4(CC3)CCN(Cc3ccc(C(C)(C)C)cc3)c3cccc(F)c3O4)s2)s1` [Compound 78], the pIC50 is 5.00 to 6.30.

For the compound `CN(C)CCCNC(=O)c1cnc(N2CCC3(CC2)CCN(Cc2ccc(C(C)(C)C)cc2)c2cccc(F)c2O3)s1` [Compound 107], the pIC50 was 5.00 to 6.30.

In the case of `CC(C)(C)c1ccc(CN2CCC3(CCN(c4ncc(C(=O)NCCc5c[nH]cn5)s4)CC3)Oc3c(F)cccc32)cc1` [Compound 111], the negative-log IC50 (pIC50) was < 5.00.

Consider `Cc1n[nH]c(C)c1CCNC(=O)c1cnc(N2CCC3(CC2)CCN(Cc2ccc(C(C)(C)C)cc2)c2cccc(F)c2O3)s1` [Compound 100], for which the pIC50 is < 5.00.

`CC(C)CNC(=O)c1cnc(N2CCC3(CC2)CCN(Cc2ccc(C(C)(C)C)cc2)c2cccc(F)c2O3)s1` [Compound 84]: the negative logarithm of the IC50 (pIC50) is 5.00 to 6.30.

As to `CC(C)(C)OC(=O)CCNC(=O)c1cnc(N2CCC3(CC2)CCN(Cc2cccc(C(F)(F)F)c2)c2ccccc2O3)s1` [Compound 60], the pIC50 is 6.30 to 7.30.

`O=C(NC[C@H](O)CO)c1cnc(N2CCC3(CC2)CCN(Cc2cccc(C(F)(F)F)c2)c2cccc(F)c2O3)s1` [Compound 132]: the pIC50 is 7.31 to 9.30.

On to `CC(C)(C)c1ccc(CN2CCC3(CCN(c4ncc(C(=O)NCC(O)c5ccccn5)s4)CC3)Oc3c(F)cccc32)cc1` (centres unmarked) [Compound 118], for which the pIC50 is 6.30 to 7.30.

As to `O=C(NCCCO)c1cnc(N2CCC3(CC2)CCN(Cc2cccc(C(F)(F)F)c2)c2ccccc2O3)s1` [Compound 62], the pIC50 was 7.31 to 9.30.

`O=C(NC[C@H](O)CO)c1cnc(N2CCC3(CC2)CCN(Cc2cccc(C(F)(F)F)c2)c2ccccc2O3)s1` [Compound 61]: the pIC50 was 7.31 to 9.30.

Take `O=C(O)c1cnc(N2CCC3(CC2)CCN(Cc2cccc(C(F)(F)F)c2)c2ccccc2O3)s1` [Compound 54, 2-(5-(3-(trifluoromethyl)benzyl)-4,5-dihydro-3H-spiro[benzo[b][1,4]oxazepine-2,4′-piperidine]-1′-yl)thiazole-5-carboxylic Acid]: the pIC50 is 7.31 to 9.30.

Consider `CC(C)(C)c1ccc(CN2CCC3(CCN(c4ncc(C(=O)NCCN5CCNC5=O)s4)CC3)Oc3c(F)cccc32)cc1` [Compound 113], for which the pIC50 was 5.00 to 6.30.

Consider `C[C@H](O)CNC(=O)c1cnc(N2CCC3(CC2)CCN(Cc2ccc(C(C)(C)C)cc2)c2cccc(F)c2O3)s1` [Compound 110], for which the pIC50 is 7.31 to 9.30.

For `CC(C)(C)c1ccc(CN2CCC3(CCN(c4ncc(C(=O)NCCN5CCCC5)s4)CC3)Oc3c(F)cccc32)cc1` [Compound 101], the pIC50 is 5.00 to 6.30.

`CC(C)(C)c1ccc(CN2CCC3(CCN(c4ncc(C(=O)NCc5ccccc5F)s4)CC3)Oc3c(F)cccc32)cc1` [Compound 87]: the pIC50 was 6.30 to 7.30.

As to `NC(=O)c1cnc(N2CCC3(CC2)CCN(Cc2cccc(C(F)(F)F)c2)c2ccccc2O3)s1` [Compound 52], the pIC50 was 7.31 to 9.30.

In the case of `Cc1nn(C)c(C)c1CNC(=O)c1cnc(N2CCC3(CC2)CCN(Cc2ccc(C(C)(C)C)cc2)c2cccc(F)c2O3)s1` [Compound 90], the pIC50 was 5.00 to 6.30.

On to `CC(C)(C)c1ccc(CN2CCC3(CCN(c4ncc(C(=O)NCC5CCCO5)s4)CC3)Oc3c(F)cccc32)cc1` (centres unmarked) [Compound 89], for which the pIC50 was 6.30 to 7.30.

`O=C(c1cnc(N2CCC3(CC2)CCN(Cc2cccc(C(F)(F)F)c2)c2ccccc2O3)s1)N1CCCC1` [Compound 56]: the pIC50 was 5.00 to 6.30.

The same experiment, now with this note: Table 3, compounds of formula (Ic); protein from HepG2 cell P2 pellet, 20 μM stearoyl-CoA, 15 min at 25° C.; read-out: Ave IC50.
As to `O=C(O)c1ccc(N2CCC3(CC2)CCN(Cc2cccc(C(F)(F)F)c2)c2ccccc2O3)nn1` [Compound 172, 6-(5-(3-(trifluoromethyl)benzyl)-4,5-dihydro-3H-spiro[benzo-[b][1,4]oxazepine-2,4′-piperidine]-1′-yl)pyridazine-3-carboxylic Acid], the pIC50 is 5.00 to 6.30.

With `O=C(NCCCO)c1ccc(N2CCC3(CC2)CCN(Cc2cccc(C(F)(F)F)c2)c2ccccc2O3)nn1` [Compound 161], the pIC50 is 6.30 to 7.30.

For the compound `O=C(NCCc1cccnc1)c1ccc(N2CCC3(CC2)CCN(Cc2cccc(C(F)(F)F)c2)c2ccccc2O3)nn1` [Compound 163], the negative logarithm of the IC50 (pIC50) is 7.31 to 9.30.

As for `NC(=O)c1ccc(N2CCC3(CC2)CCN(Cc2ccc(Oc4ccccc4)cc2)c2ccccc2O3)nn1` [Compound 184], the pIC50 was 7.31 to 9.30.

As for `COC(=O)c1ccc(N2CCC3(CC2)CCN(Cc2cccc(C(F)(F)F)c2)c2ccccc2O3)nn1` [Compound 170, methyl 6-(5-(3-(trifluoromethyl)benzyl)-4,5-dihydro-3H-spiro-[benzo[b][1,4]oxazepine-2,4′-piperidine]-1′-yl)pyridazine-3-carboxylate], the pIC50 is 7.31 to 9.30.

With `O=C(NCCc1ccccc1)c1ccc(N2CCC3(CC2)CCN(Cc2cccc(C(F)(F)F)c2)c2ccccc2O3)nn1` [Compound 155], the pIC50 was 7.31 to 9.30.

With `CC(C)(C)c1ccc(CN2CCC3(CCN(c4ccc(C(=O)NCCC5CC5)nn4)CC3)Oc3ccccc32)cc1` [Compound 140], the pIC50 is 7.31 to 9.30.

In the case of `CC(C)(C)c1ccc(CN2CCC3(CCN(c4ccc(C(=O)NCCc5ccncc5)nn4)CC3)Oc3c(F)cccc32)cc1` [Compound 144], the pIC50 was 7.31 to 9.30.

For `CCc1ccc(CN2CCC3(CCN(c4ccc(C(=O)NCCC5CC5)cn4)CC3)Oc3ccccc32)cc1` [Compound 177], the pIC50 was 6.30 to 7.30.

On to `O=C(NCCC1CC1)c1ccc(N2CCC3(CC2)CCN(Cc2cccc(C(F)(F)F)c2)c2cccc(F)c2O3)nn1` [Compound 175], for which the pIC50 was 7.31 to 9.30.

`CC(C)(C)c1ccc(CN2CCC3(CCN(c4ccc(C(=O)NCCc5c[nH]cn5)cn4)CC3)Oc3c(F)cccc32)cc1` [Compound 148]: the pIC50 was 5.00 to 6.30.

On to `CC(C)CNC(=O)c1ccc(N2CCC3(CC2)CCN(Cc2cccc(C(F)(F)F)c2)c2ccccc2O3)nn1` [Compound 158], for which the negative logarithm of the IC50 (pIC50) was 6.30 to 7.30.

On to `CC(C)CCNC(=O)c1ccc(N2CCC3(CC2)CCN(Cc2cccc(C(F)(F)F)c2)c2ccccc2O3)nn1` [Compound 160], for which the pIC50 is 6.30 to 7.30.

`CCc1ccc(CN2CCC3(CCN(c4ccc(C(=O)NCCC5CC5)nn4)CC3)Oc3ccccc32)cc1` [Compound 176]: the negative-log IC50 (pIC50) is 7.31 to 9.30.

A word on the pIC50: it is the negative decadic logarithm of the IC50, by convention in mol/L.
